Source: ChEMBL document CHEMBL1135576, “Synthesis and biological characterization of L-N(6)-(1-iminoethyl)lysine 5-tetrazole-amide, a prodrug of a selective iNOS inhibitor” (J Med Chem, 2002)
pIC50: −log10 of the molar value.

How the values were obtained:
[1] = molecular target: T1, Nitric oxide synthase, inducible (Homo sapiens, UniProt P35228); experiment: The concentration required for inhibition of Human inducible nitric oxide synthase (iNOS) isoform
Nitric oxide synthase 1 = Nitric oxide synthase 1 (Homo sapiens, UniProt P29475); experiment: The concentration required for inhibition of Human Neuronal nitric oxide synthase (nNOS)
Chain of Nitric oxide synthase 1 (P29475 whole entry, canonical isoform): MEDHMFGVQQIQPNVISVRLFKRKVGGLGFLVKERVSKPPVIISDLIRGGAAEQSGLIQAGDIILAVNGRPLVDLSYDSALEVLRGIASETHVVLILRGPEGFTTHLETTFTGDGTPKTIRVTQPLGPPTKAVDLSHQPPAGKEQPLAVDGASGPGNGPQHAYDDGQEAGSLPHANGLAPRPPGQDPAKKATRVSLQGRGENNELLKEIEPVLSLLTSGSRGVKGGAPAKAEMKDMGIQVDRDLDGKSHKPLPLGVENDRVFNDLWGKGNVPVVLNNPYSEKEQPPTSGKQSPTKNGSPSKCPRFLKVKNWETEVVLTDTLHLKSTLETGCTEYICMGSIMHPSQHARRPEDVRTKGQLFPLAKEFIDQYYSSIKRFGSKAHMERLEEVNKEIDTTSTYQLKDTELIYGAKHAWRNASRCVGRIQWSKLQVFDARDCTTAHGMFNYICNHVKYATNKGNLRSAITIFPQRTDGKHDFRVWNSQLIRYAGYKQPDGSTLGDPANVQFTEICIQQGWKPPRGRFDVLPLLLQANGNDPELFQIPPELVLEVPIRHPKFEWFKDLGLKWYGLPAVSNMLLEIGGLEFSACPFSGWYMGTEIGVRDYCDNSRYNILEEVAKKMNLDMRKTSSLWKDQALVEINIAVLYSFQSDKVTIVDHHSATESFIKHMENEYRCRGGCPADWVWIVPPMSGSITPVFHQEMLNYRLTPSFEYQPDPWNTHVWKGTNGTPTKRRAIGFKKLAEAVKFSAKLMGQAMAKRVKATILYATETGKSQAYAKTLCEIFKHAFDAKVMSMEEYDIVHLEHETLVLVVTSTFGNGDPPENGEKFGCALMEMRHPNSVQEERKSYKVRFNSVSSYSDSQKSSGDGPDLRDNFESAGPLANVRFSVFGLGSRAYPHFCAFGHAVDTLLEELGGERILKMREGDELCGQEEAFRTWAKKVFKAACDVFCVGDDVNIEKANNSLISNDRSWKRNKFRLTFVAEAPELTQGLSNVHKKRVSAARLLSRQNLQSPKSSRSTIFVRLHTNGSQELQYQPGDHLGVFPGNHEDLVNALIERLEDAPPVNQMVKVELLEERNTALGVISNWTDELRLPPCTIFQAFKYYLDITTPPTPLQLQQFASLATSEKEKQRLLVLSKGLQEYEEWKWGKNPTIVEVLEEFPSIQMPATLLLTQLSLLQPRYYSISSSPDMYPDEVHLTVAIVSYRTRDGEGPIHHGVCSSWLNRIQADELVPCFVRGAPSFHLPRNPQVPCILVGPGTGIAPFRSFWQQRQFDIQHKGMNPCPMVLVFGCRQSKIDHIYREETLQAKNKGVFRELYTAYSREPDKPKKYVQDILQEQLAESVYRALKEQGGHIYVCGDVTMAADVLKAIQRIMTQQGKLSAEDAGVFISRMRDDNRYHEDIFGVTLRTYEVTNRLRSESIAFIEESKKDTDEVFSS

[2] = molecular target: T1, Nitric oxide synthase, inducible; experiment: The concentration required for inhibition of Human inducible nitric oxide synthase (iNOS) isoform, expressed as IC50.

T1 sequence (P35228 whole entry, canonical isoform): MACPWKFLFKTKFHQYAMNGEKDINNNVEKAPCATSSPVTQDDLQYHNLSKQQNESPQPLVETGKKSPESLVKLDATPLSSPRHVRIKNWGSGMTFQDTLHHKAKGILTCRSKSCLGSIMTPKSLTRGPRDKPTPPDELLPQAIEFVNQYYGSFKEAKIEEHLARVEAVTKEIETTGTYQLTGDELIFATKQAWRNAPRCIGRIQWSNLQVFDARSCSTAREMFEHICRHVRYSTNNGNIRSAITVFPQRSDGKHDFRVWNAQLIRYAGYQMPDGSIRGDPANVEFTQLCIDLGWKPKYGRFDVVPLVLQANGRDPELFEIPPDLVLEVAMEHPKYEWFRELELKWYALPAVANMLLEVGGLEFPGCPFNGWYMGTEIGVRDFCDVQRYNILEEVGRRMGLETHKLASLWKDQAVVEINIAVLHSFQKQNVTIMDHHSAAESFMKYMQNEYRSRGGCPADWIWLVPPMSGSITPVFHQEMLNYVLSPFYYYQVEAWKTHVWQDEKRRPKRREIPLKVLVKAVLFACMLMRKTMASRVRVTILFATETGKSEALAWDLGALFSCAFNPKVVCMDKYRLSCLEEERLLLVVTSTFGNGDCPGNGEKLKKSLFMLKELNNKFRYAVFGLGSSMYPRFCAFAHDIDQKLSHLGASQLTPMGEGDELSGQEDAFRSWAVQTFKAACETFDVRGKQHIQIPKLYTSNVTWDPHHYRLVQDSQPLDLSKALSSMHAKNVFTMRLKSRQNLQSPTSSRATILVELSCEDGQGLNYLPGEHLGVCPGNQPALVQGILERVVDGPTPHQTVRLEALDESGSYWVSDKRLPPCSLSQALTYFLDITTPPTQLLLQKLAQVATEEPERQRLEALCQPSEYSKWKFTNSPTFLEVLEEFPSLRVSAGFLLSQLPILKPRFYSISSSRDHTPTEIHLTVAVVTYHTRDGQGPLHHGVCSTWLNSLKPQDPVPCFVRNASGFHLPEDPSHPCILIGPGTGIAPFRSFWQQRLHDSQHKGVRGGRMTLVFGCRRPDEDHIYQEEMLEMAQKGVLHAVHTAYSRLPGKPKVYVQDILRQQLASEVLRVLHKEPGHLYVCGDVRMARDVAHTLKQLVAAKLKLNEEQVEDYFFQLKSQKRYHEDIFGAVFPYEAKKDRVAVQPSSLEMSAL

pIC50 [1]	pIC50 (Nitric oxide synthase 1)	pIC50 [2]	Compound
5.23	4.46		CC(=N)NCCCC[C@H](N)C(=O)O
	< 2.73	< 2.73	CC(=N)NCCCC[C@H](N)C(=O)Nc1nnn[nH]1
